Laboratory results taken from patent US20180055032A1, “ODORS FOR PSYLLID TRAPPING, REPELLING AND CONTROL” (The Regents of the University of California, priority 2011, published 2018).
Like-named read-outs stand apart in the source and are kept apart here.

Experiments:
Format in all cases: cell-based, Diaphorina citri
[1] = test system: neuron 7A (rhinarial plate on flagellomere 7); test: single-sensillum electrophysiology, odor response of neuron 7A; conditions: for response to inhibitory odors, 7A: Table 2, odor diluted to 10^−2, 50 μL in cartridge; for odor response (frequency of action potentials during stimulus minus baseline), 7A: Table 1, odor diluted to 1%, 50 μL in cartridge; as to all read-outs here: key: 0, no response; +, >50 spikes/second; ++, >100 spikes/second; +++, >150 spikes/second
[2] = test system: neuron 6A (rhinarial plate on flagellomere 6); test: single-sensillum electrophysiology, odor response of neuron 6A; conditions: for response to inhibitory odors, 6A: Table 2, odor diluted to 10^−2, 50 μL in cartridge; for odor response (frequency of action potentials during stimulus minus baseline), 6A: Table 1, odor diluted to 1%, 50 μL in cartridge; as to response to inhibitory odors, 6A: key: 0, no response; +, >50 spikes/second; ++, >100 spikes/second; +++, >150 spikes/second
[3] = test system: neuron 2A (rhinarial plate on flagellomere 2); test: single-sensillum electrophysiology, odor response of neuron 2A; conditions: for response to inhibitory odors, 2A: Table 2, odor diluted to 10^−2, 50 μL in cartridge; for odor response (frequency of action potentials during stimulus minus baseline), 2A: Table 1, odor diluted to 1%, 50 μL in cartridge; as to all read-outs here: key: 0, no response; +, >50 spikes/second; ++, >100 spikes/second; +++, >150 spikes/second
[4] = test system: neuron 6B (rhinarial plate on flagellomere 6); test: single-sensillum electrophysiology, odor response of neuron 6B; conditions: for response to inhibitory odors, 6B: Table 2, odor diluted to 10^−2, 50 μL in cartridge; for odor response (frequency of action potentials during stimulus minus baseline), 6B: Table 1, odor diluted to 1%, 50 μL in cartridge; as to response to inhibitory odors, 6B: key: 0, no response; +, >50 spikes/second; ++, >100 spikes/second; +++, >150 spikes/second
[5] = test system: neuron 4C (rhinarial plate on flagellomere 4); test: single-sensillum electrophysiology, odor response of neuron 4C; conditions: for response to inhibitory odors, 4C: Table 2, odor diluted to 10^−2, 50 μL in cartridge
[6] = test system: neuron 7B (rhinarial plate on flagellomere 7); conditions: for odor response (frequency of action potentials during stimulus minus baseline), 7B: Table 1, odor diluted to 1%, 50 μL in cartridge
[7] = test system: neuron 2B (rhinarial plate on flagellomere 2); test: single-sensillum electrophysiology, odor response of neuron 2B; conditions: for response to inhibitory odors, 2B: Table 2, odor diluted to 10^−2, 50 μL in cartridge; for odor response (frequency of action potentials during stimulus minus baseline), 2B: Table 1, odor diluted to 1%, 50 μL in cartridge
[8] = test system: neuron 2C (rhinarial plate on flagellomere 2); test: single-sensillum electrophysiology, odor response of neuron 2C; conditions: for response to inhibitory odors, 2C: Table 2, odor diluted to 10^−2, 50 μL in cartridge; for odor response (frequency of action potentials during stimulus minus baseline), 2C: Table 1, odor diluted to 1%, 50 μL in cartridge
[9] = test system: neuron 4A (rhinarial plate on flagellomere 4); test: single-sensillum electrophysiology, odor response of neuron 4A; conditions: for response to inhibitory odors, 4A: Table 2, odor diluted to 10^−2, 50 μL in cartridge; for odor response (frequency of action potentials during stimulus minus baseline), 4A: Table 1, odor diluted to 1%, 50 μL in cartridge
[10] = test system: neuron 4B (rhinarial plate on flagellomere 4); conditions: for odor response (frequency of action potentials during stimulus minus baseline), 4B: Table 1, odor diluted to 1%, 50 μL in cartridge
[11] = test system: neuron 7C (rhinarial plate on flagellomere 7); test: single-sensillum electrophysiology, odor response of neuron 7C; conditions: for response to inhibitory odors, 7C: Table 2, odor diluted to 10^−2, 50 μL in cartridge; for odor response (frequency of action potentials during stimulus minus baseline), 7C: Table 1, odor diluted to 1%, 50 μL in cartridge
[12] = test system: neuron 6C (rhinarial plate on flagellomere 6); test: single-sensillum electrophysiology, odor response of neuron 6C; conditions: for response to inhibitory odors, 6C: Table 2, odor diluted to 10^−2, 50 μL in cartridge; for odor response (frequency of action potentials during stimulus minus baseline), 6C: Table 1, odor diluted to 1%, 50 μL in cartridge
[13] = Table 2, odor diluted to 10^−2, 50 μL in cartridge

Compound | response to inhibitory odors, 7A [1] | response to inhibitory odors, 6A [2] | response to inhibitory odors, 2A [3] | response to inhibitory odors, 6B [4] | response to inhibitory odors, 4C [5] | response to inhibitory odors, 2B [7] | response to inhibitory odors, 2C [8] | response to inhibitory odors, 4A [9] | response to inhibitory odors, 7C [11] | response to inhibitory odors, 6C [12] | response to inhibitory odors, 7B [6, 13] | response to inhibitory odors, 4B [10, 13] | other results
CNC [dimethyl amine] | 0 | 0 | 0 | 0 | 0 | 0 | 0 | 0 | – | – | – | – | response to inhibitory odors, 7B [6]: 0; response to inhibitory odors, 4B [10]: 0
c1ccncc1 [pyridine] | 0 | 0 | 0 | 0 | – | 0 | 0 | 0 | 0 | 0 | – | – | response to inhibitory odors, 7B [6]: 0; response to inhibitory odors, 4B [10]: 0
CN1CCCCC1 [N-methylpiperidine] | 0 | 0 | 0 | 0 | 0 | 0 | 0 | 0 | – | 0 | 0 | 0 | –
CC(=O)C(C)=O [2,3-butanedione] | 0 | 0 | 0 | 0 | 0 | – | 0 | 0 | 0 | 0 | 0 | 0 | –
C=C1CC[C@H]2C[C@@H]1C2(C)C [(−)-β-pinene] | – | – | – | – | – | – | – | – | – | – | – | – | odor response (frequency of action potentials during stimulus minus baseline), 7A [1]: 0; odor response (frequency of action potentials during stimulus minus baseline), 6A [2]: 0; odor response (frequency of action potentials during stimulus minus baseline), 2A [3]: 0; odor response (frequency of action potentials during stimulus minus baseline), 6B [4]: + (+, >50 spikes/second); odor response (frequency of action potentials during stimulus minus baseline), 7C [11]: 0; odor response (frequency of action potentials during stimulus minus baseline), 7B [6]: 0; odor response (frequency of action potentials during stimulus minus baseline), 2B [7]: 0; odor response (frequency of action potentials during stimulus minus baseline), 2C [8]: 0; odor response (frequency of action potentials during stimulus minus baseline), 6C [12]: 0; odor response (frequency of action potentials during stimulus minus baseline), 4A [9]: 0; odor response (frequency of action potentials during stimulus minus baseline), 4B [10]: + (+, >50 spikes/second)
CCCCCC(=O)OCC [ethyl hexanoate] | 0 | 0 | 0 | 0 | 0 | 0 | 0 | 0 | – | 0 | 0 | 0 | –
Cl.Cl.NCCCCN [putrescine dihydrochloride] | 0 | 0 | 0 | 0 | 0 | – | 0 | 0 | 0 | 0 | – | – | response to inhibitory odors, 7B [6]: 0; response to inhibitory odors, 4B [10]: 0
CC(C)C(=O)O [isobutyric acid] | 0 | 0 | 0 | 0 | – | 0 | 0 | 0 | 0 | – | 0 | – | –
C=C(C)C1CC=C(C=O)CC1 (centres unmarked) [perillaldehyde] | 0 | 0 | 0 | 0 | 0 | 0 | – | 0 | 0 | 0 | 0 | 0 | odor response (frequency of action potentials during stimulus minus baseline), 7A [1]: 0; odor response (frequency of action potentials during stimulus minus baseline), 6A [2]: 0; odor response (frequency of action potentials during stimulus minus baseline), 2A [3]: 0; odor response (frequency of action potentials during stimulus minus baseline), 6B [4]: + (+, >50 spikes/second); odor response (frequency of action potentials during stimulus minus baseline), 7C [11]: 0; odor response (frequency of action potentials during stimulus minus baseline), 4C ([5]; Table 1, odor diluted to 1%, 50 μL in cartridge): 0; odor response (frequency of action potentials during stimulus minus baseline), 7B [6]: 0; odor response (frequency of action potentials during stimulus minus baseline), 2B [7]: 0; odor response (frequency of action potentials during stimulus minus baseline), 6C [12]: 0; odor response (frequency of action potentials during stimulus minus baseline), 4A [9]: 0; odor response (frequency of action potentials during stimulus minus baseline), 4B [10]: + (+, >50 spikes/second)
CC1=CC[C@H]2C[C@@H]1C2(C)C [(−)-α-pinene] | – | – | – | – | – | – | – | – | – | – | – | – | odor response (frequency of action potentials during stimulus minus baseline), 7A [1]: 0; odor response (frequency of action potentials during stimulus minus baseline), 6A [2]: 0; odor response (frequency of action potentials during stimulus minus baseline), 2A [3]: 0; odor response (frequency of action potentials during stimulus minus baseline), 6B [4]: + (+, >50 spikes/second); odor response (frequency of action potentials during stimulus minus baseline), 7C [11]: 0; odor response (frequency of action potentials during stimulus minus baseline), 7B [6]: 0; odor response (frequency of action potentials during stimulus minus baseline), 2B [7]: 0; odor response (frequency of action potentials during stimulus minus baseline), 2C [8]: 0; odor response (frequency of action potentials during stimulus minus baseline), 6C [12]: 0; odor response (frequency of action potentials during stimulus minus baseline), 4A [9]: 0; odor response (frequency of action potentials during stimulus minus baseline), 4B [10]: + (+, >50 spikes/second)
CCCCCCCCOC(C)=O [n-octyl acetate] | 0 | 0 | 0 | 0 | 0 | 0 | 0 | 0 | 0 | 0 | 0 | – | –
CC(=O)O [acetic acid] | 0 | 0 | 0 | – | 0 | 0 | 0 | 0 | – | 0 | – | – | response to inhibitory odors, 7B [6]: 0
CCCCCCN [hexylamine] | 0 | 0 | 0 | 0 | – | 0 | 0 | 0 | 0 | 0 | 0 | 0 | –
CC1CC(=O)O1 (stereo not drawn) [β-butyrolactone] | 0 | 0 | 0 | 0 | 0 | 0 | 0 | 0 | 0 | 0 | 0 | – | –
CCC(=O)O [propionic acid] | 0 | 0 | 0 | – | 0 | 0 | 0 | 0 | 0 | 0 | 0 | – | –
CCCCCN [pentylamine] | 0 | 0 | 0 | 0 | – | – | 0 | 0 | 0 | 0 | 0 | 0 | –
CCCCC(=O)O [pentanoic acid] | 0 | 0 | 0 | 0 | 0 | 0 | 0 | 0 | 0 | 0 | – | 0 | –
